{"source": "patent US20260364079A1", "about": "(Principia Biopharma Inc., priority 2022, published 2026)", "assay": "phase 1/2 study in relapsed/refractory ITP (NCT03395210), safety", "details": "for Abdominal discomfort / Abdominal distension / Abdominal pain / Abnormal dreams / Akathisia / Alopecia / Anemia / Any TEAE / Arthralgia / Arthropod bite / Back pain / Conjunctival hemorrhage / Contusion / Costochondritis / Cough / Decreased appetite / Defecation urgency / Diarrhea / Dizziness / Dyspepsia / Dyspnea / Dyspnea exertional / Edema / Epigastric discomfort / Epistaxis / Erysipelas / Fatigue / Frequent bowel movements / Gingival bleeding / Headache / Heavy menstrual bleeding / Hypoesthesia / Hypophosphatemia / I lot flush / Ilypokalemia / Increased white blood cell count / Maculo-papular rash / Malaise / Micturition urgency / Muscle spasms / Myalgia / Nasal congestion / Nasopharyngitis / Nausea / Peripheral swelling / Petechiae / Pruritus / Purpura / Rash / Thrombocytopena / Upper abdominal pain / Upper respiratory tract infection / Urinary tract infection / Vomiting: TEAE any cause", "excerpt": "The Safety Population was used for all safety analyses.\nPre-existing conditions that worsened during a study were reported as AEs.\nSafety was graded per NCI CTCAE, version 4.0.", "key": {"[1]": {"details": "45 patients initiating 400 mg bid"}}, "data": [{"molecule": "CC(C)(C=C(C#N)C(=O)N1CCC[C@@H](n2nc(-c3ccc(Oc4ccccc4)cc3F)c3c(N)ncnc32)C1)N1CCN(C2COC2)CC1", "note": "(mixture of isomers) [rilzabrutinib, (R)-2-[3-[4-amino-3-(2-fluoro-4-phenoxy-phenyl)pyrazolo[3,4-d]pyrimidin-1-yl]piperidine-1-carbonyl]-4-methyl-4-[4-(oxetan-3-yl)piperazin-1-yl]pent-2-enenitrile]", "values": [{"measurement": "Rescue medication use", "setting": "200 mg qd", "result": 1, "unit": "patient"}, {"measurement": "Rescue medication use", "setting": "300 mg bid, patients", "result": 1}, {"measurement": "Rescue medication use", "setting": "400 mg bid, patients", "result": 5}, {"measurement": "dose reductions/interruptions due to adverse events", "setting": "[1]", "result": "no dose reductions/interruptions due to adverse events"}, {"measurement": "dose-limiting toxicities", "setting": "[1]", "result": "no dose-limiting toxicities"}, {"measurement": "tolerability", "setting": "ITP patients", "result": "well-tolerated"}, {"measurement": "treatment-related bleeding or thrombotic events", "setting": "ITP patients", "result": "no reported treatment-related bleeding or thrombotic events"}, {"measurement": "Abdominal discomfort", "setting": "any grade", "result": "1 (2) number of patients (percent)"}, {"measurement": "Abdominal distension", "setting": "any grade", "result": "6 (10) number of patients (percent)"}, {"measurement": "Abdominal pain", "setting": "any grade", "result": "3 (5) number of patients (percent)"}, {"measurement": "Abnormal dreams", "setting": "any grade", "result": "1 (2) number of patients (percent)"}, {"measurement": "Akathisia", "setting": "any grade", "result": "1 (2) number of patients (percent)"}, {"measurement": "Alopecia", "setting": "any grade", "result": "2 (3) number of patients (percent)"}, {"measurement": "Anemia", "setting": "any grade", "result": "4 (7) number of patients (percent)"}, {"measurement": "Any TEAE", "setting": "any grade", "result": "48 (80) number of patients (percent)"}, {"measurement": "Arthralgia", "setting": "any grade", "result": "5 (8) number of patients (percent)"}, {"measurement": "Arthropod bite", "setting": "any grade", "result": "3 (5) number of patients (percent)"}, {"measurement": "Back pain", "setting": "any grade", "result": "8 (13) number of patients (percent)"}, {"measurement": "Conjunctival hemorrhage", "setting": "any grade", "result": "5 (8) number of patients (percent)"}, {"measurement": "Contusion", "setting": "any grade", "result": "11 (18) number of patients (percent)"}, {"measurement": "Costochondritis", "setting": "any grade", "result": "2 (3) number of patients (percent)"}, {"measurement": "Cough", "setting": "any grade", "result": "2 (3) number of patients (percent)"}, {"measurement": "Decreased appetite", "setting": "any grade", "result": "1 (2) number of patients (percent)"}, {"measurement": "Defecation urgency", "setting": "any grade", "result": "1 (2) number of patients (percent)"}, {"measurement": "Diarrhea", "setting": "any grade", "result": "22 (37) number of patients (percent)"}, {"measurement": "Dizziness", "setting": "any grade", "result": "2 (3) number of patients (percent)"}, {"measurement": "Dyspepsia", "setting": "any grade", "result": "4 (7) number of patients (percent)"}, {"measurement": "Dyspnea", "setting": "any grade", "result": "2 (3) number of patients (percent)"}, {"measurement": "Dyspnea exertional", "setting": "any grade", "result": "2 (3) number of patients (percent)"}, {"measurement": "Edema", "setting": "any grade", "result": "2 (3) number of patients (percent)"}, {"measurement": "Epigastric discomfort", "setting": "any grade", "result": "1 (2) number of patients (percent)"}, {"measurement": "Epistaxis", "setting": "any grade", "result": "2 (3) number of patients (percent)"}, {"measurement": "Erysipelas", "setting": "any grade", "result": "1 (2) number of patients (percent)"}, {"measurement": "Fatigue", "setting": "any grade", "result": "12 (20) number of patients (percent)"}, {"measurement": "Frequent bowel movements", "setting": "any grade", "result": "1 (2) number of patients (percent)"}, {"measurement": "Gingival bleeding", "setting": "any grade", "result": "3 (5) number of patients (percent)"}, {"measurement": "Headache", "setting": "any grade", "result": "7 (12) number of patients (percent)"}, {"measurement": "Heavy menstrual bleeding", "setting": "any grade", "result": "2 (3) number of patients (percent)"}, {"measurement": "Hypoesthesia", "setting": "any grade", "result": "1 (2) number of patients (percent)"}, {"measurement": "Hypophosphatemia", "setting": "any grade", "result": "2 (3) number of patients (percent)"}, {"measurement": "I lot flush", "setting": "any grade", "result": "1 (2) number of patients (percent)"}, {"measurement": "Ilypokalemia", "setting": "any grade", "result": "1 (2) number of patients (percent)"}, {"measurement": "Increased white blood cell count", "setting": "any grade", "result": "1 (2) number of patients (percent)"}, {"measurement": "Maculo-papular rash", "setting": "any grade", "result": "1 (2) number of patients (percent)"}, {"measurement": "Malaise", "setting": "any grade", "result": "1 (2) number of patients (percent)"}, {"measurement": "Micturition urgency", "setting": "any grade", "result": "1 (2) number of patients (percent)"}, {"measurement": "Muscle spasms", "setting": "any grade", "result": "2 (3) number of patients (percent)"}, {"measurement": "Myalgia", "setting": "any grade", "result": "1 (2) number of patients (percent)"}, {"measurement": "Nasal congestion", "setting": "any grade", "result": "2 (3) number of patients (percent)"}, {"measurement": "Nasopharyngitis", "setting": "any grade", "result": "3 (5) number of patients (percent)"}, {"measurement": "Nausea", "setting": "any grade", "result": "21 (35) number of patients (percent)"}, {"measurement": "Peripheral swelling", "setting": "any grade", "result": "3 (5) number of patients (percent)"}, {"measurement": "Petechiae", "setting": "any grade", "result": "4 (7) number of patients (percent)"}, {"measurement": "Pruritus", "setting": "any grade", "result": "2 (3) number of patients (percent)"}, {"measurement": "Purpura", "setting": "any grade", "result": "2 (3) number of patients (percent)"}, {"measurement": "Rash", "setting": "any grade", "result": "3 (5) number of patients (percent)"}, {"measurement": "Thrombocytopena", "setting": "any grade", "result": "2 (3) number of patients (percent)"}, {"measurement": "Upper abdominal pain", "setting": "any grade", "result": "3 (5) number of patients (percent)"}, {"measurement": "Upper respiratory tract infection", "setting": "any grade", "result": "3 (5) number of patients (percent)"}, {"measurement": "Urinary tract infection", "setting": "any grade", "result": "2 (3) number of patients (percent)"}, {"measurement": "Vomiting", "setting": "any grade", "result": "4 (7) number of patients (percent)"}, {"measurement": "Abdominal discomfort", "setting": "grade 1", "result": "1 (2) number of patients (percent)"}, {"measurement": "Abdominal distension", "setting": "grade 1", "result": "6 (10) number of patients (percent)"}, {"measurement": "Abdominal pain", "setting": "grade 1", "result": "1 (2) number of patients (percent)"}, {"measurement": "Abnormal dreams", "setting": "grade 1", "result": "1 (2) number of patients (percent)"}, {"measurement": "Akathisia", "setting": "grade 1", "result": "1 (2) number of patients (percent)"}, {"measurement": "Alopecia", "setting": "grade 1", "result": "2 (3) number of patients (percent)"}, {"measurement": "Anemia", "setting": "grade 1", "result": "— (represents zero events)"}, {"measurement": "Any TEAE", "setting": "grade 1", "result": "43 (72) number of patients (percent)"}, {"measurement": "Arthralgia", "setting": "grade 1", "result": "3 (5) number of patients (percent)"}, {"measurement": "Arthropod bite", "setting": "grade 1", "result": "3 (5) number of patients (percent)"}, {"measurement": "Back pain", "setting": "grade 1", "result": "7 (12) number of patients (percent)"}, {"measurement": "Conjunctival hemorrhage", "setting": "grade 1", "result": "5 (8) number of patients (percent)"}, {"measurement": "Contusion", "setting": "grade 1", "result": "7 (12) number of patients (percent)"}, {"measurement": "Costochondritis", "setting": "grade 1", "result": "2 (3) number of patients (percent)"}, {"measurement": "Cough", "setting": "grade 1", "result": "2 (3) number of patients (percent)"}, {"measurement": "Decreased appetite", "setting": "grade 1", "result": "1 (2) number of patients (percent)"}, {"measurement": "Defecation urgency", "setting": "grade 1", "result": "— (represents zero events)"}, {"measurement": "Diarrhea", "setting": "grade 1", "result": "19 (32) number of patients (percent)"}, {"measurement": "Dizziness", "setting": "grade 1", "result": "2 (3) number of patients (percent)"}, {"measurement": "Dyspepsia", "setting": "grade 1", "result": "3 (5) number of patients (percent)"}, {"measurement": "Dyspnea", "setting": "grade 1", "result": "2 (3) number of patients (percent)"}, {"measurement": "Dyspnea exertional", "setting": "grade 1", "result": "2 (3) number of patients (percent)"}, {"measurement": "Edema", "setting": "grade 1", "result": "2 (3) number of patients (percent)"}, {"measurement": "Epigastric discomfort", "setting": "grade 1", "result": "— (represents zero events)"}, {"measurement": "Epistaxis", "setting": "grade 1", "result": "2 (3) number of patients (percent)"}, {"measurement": "Erysipelas", "setting": "grade 1", "result": "— (represents zero events)"}, {"measurement": "Fatigue", "setting": "grade 1", "result": "10 (17) number of patients (percent)"}, {"measurement": "Frequent bowel movements", "setting": "grade 1", "result": "— (represents zero events)"}, {"measurement": "Gingival bleeding", "setting": "grade 1", "result": "3 (5) number of patients (percent)"}, {"measurement": "Headache", "setting": "grade 1", "result": "7 (12) number of patients (percent)"}, {"measurement": "Heavy menstrual bleeding", "setting": "grade 1", "result": "1 (2) number of patients (percent)"}, {"measurement": "Hypoesthesia", "setting": "grade 1", "result": "— (represents zero events)"}, {"measurement": "Hypophosphatemia", "setting": "grade 1", "result": "— (represents zero events)"}, {"measurement": "I lot flush", "setting": "grade 1", "result": "— (represents zero events)"}, {"measurement": "Ilypokalemia", "setting": "grade 1", "result": "1 (2) number of patients (percent)"}, {"measurement": "Increased white blood cell count", "setting": "grade 1", "result": "— (represents zero events)"}, {"measurement": "Maculo-papular rash", "setting": "grade 1", "result": "1 (2) number of patients (percent)"}, {"measurement": "Malaise", "setting": "grade 1", "result": "1 (2) number of patients (percent)"}, {"measurement": "Micturition urgency", "setting": "grade 1", "result": "1 (2) number of patients (percent)"}, {"measurement": "Muscle spasms", "setting": "grade 1", "result": "2 (3) number of patients (percent)"}, {"measurement": "Myalgia", "setting": "grade 1", "result": "1 (2) number of patients (percent)"}, {"measurement": "Nasal congestion", "setting": "grade 1", "result": "1 (2) number of patients (percent)"}, {"measurement": "Nasopharyngitis", "setting": "grade 1", "result": "2 (3) number of patients (percent)"}, {"measurement": "Nausea", "setting": "grade 1", "result": "18 (30) number of patients (percent)"}, {"measurement": "Peripheral swelling", "setting": "grade 1", "result": "3 (5) number of patients (percent)"}, {"measurement": "Petechiae", "setting": "grade 1", "result": "4 (7) number of patients (percent)"}, {"measurement": "Pruritus", "setting": "grade 1", "result": "1 (2) number of patients (percent)"}, {"measurement": "Purpura", "setting": "grade 1", "result": "2 (3) number of patients (percent)"}, {"measurement": "Rash", "setting": "grade 1", "result": "1 (2) number of patients (percent)"}, {"measurement": "Thrombocytopena", "setting": "grade 1", "result": "— (represents zero events)"}, {"measurement": "Upper abdominal pain", "setting": "grade 1", "result": "2 (3) number of patients (percent)"}, {"measurement": "Upper respiratory tract infection", "setting": "grade 1", "result": "2 (3) number of patients (percent)"}, {"measurement": "Urinary tract infection", "setting": "grade 1", "result": "1 (2) number of patients (percent)"}, {"measurement": "Vomiting", "setting": "grade 1", "result": "3 (5) number of patients (percent)"}, {"measurement": "Abdominal discomfort", "setting": "grade 2", "result": "— (represents zero events)"}, {"measurement": "Abdominal distension", "setting": "grade 2", "result": "— (represents zero events)"}]}]}
